Source: patent US10816541B2, “Method for predicting side effect of whitening ingredient” (AMOREPACIFIC CORPORATION, priority 2015, dated 2020)
“Also recorded” adds a separate entry of the source. Like-named read-outs stand apart in the source and are kept apart here.

Columns and labels:
[1] = Cytotoxic concentration for HEMn-MP cells depending on treatment time (CCK-8, Test Example 1-1); assay type: cell-based, human; conditions: human, HEMn-MP cells (human epidermal melanocytes); for CC50 at 1 day: Day 1; for CC50 at 7 days: Day 7
Protocol: (§1) The HEMn-MP (human epidermal melanocytes, neonatal, moderately pigmented donor, Cat. No. C-102-5C) cells were purchased from Life Technologies (USA). As a cell culture medium, medium 254 (Cat. No. M-254-500) supplemented with HMGS (Cat. No. S-002-5) was used. The cells were cultured according to the manufacturer's manual and cells during passages 3-8 were used. To summarize, the cells were cultured on a 175 T flask in a 5% CO2 incubator at 37° C. During subculturing, the cells were separated using 0.05% trypsin-EDTA, collected by centrifugation (1200 rpm, 5 minutes) and cultured after seeding to 5×10^3 cells/cm^2. For cytotoxicity test, the cells were seeded onto a 96-well plate with 2×10^4 cells/well, cultured for a day and treated with each substance at 200 μL/well. Then, cytotoxicity was measured after a predetermined time.
(§2) Cytotoxicity was measured with Cell Counting Kit-8 (CCK-8) manufactured by Dojindo Molecular Technologies (USA). After removing the medium from the 96-well plate, 200 μL of 10% CCK-8 in the same medium was added to each well. After incubation at 37° C. for about 2 hours, absorbance of 100 μL of the medium was measured at 450 nm using an ELISA reader. As the cells […], the color of CCK-8 shifts to longer wavelength from colorless to orange color.
(§3) Cell survivability was calculated according to Equation 1. Cell survivability (%)={(Asample−Ab)/(Ac−Ab)}×100 [Equation 1]
(§4) In order to determine the cytotoxic concentration of the whitening ingredients for HEMn-MP (human epidermal melanocytes, neonatal, moderately pigmented donor, Cat. No. C-102-5C) cells, cell survivability (% cell survival rate) was measured as compared to a control group (0.5% DMSO) on days 1 and 7 after treatment with each whitening ingredient at the concentration described in Table 1 (FIG. 2). Based on the measurement result, CC20 and CC50 were calculated for the whitening ingredients and treatment time. Then, the ratio of the cytotoxic concentration on day 7 as compared to day 1 was calculated (Table 2).

HEMn-MP cells [2] = assay: as above; assay type: cell-based, human
Protocol: as §1, §2, §3, §4

[3] = Cytotoxic concentration for A375 cells depending on treatment time (CCK-8, Test Example 1-2); assay type: cell-based, human; conditions: human, A375 cells (melanoma cell line), A375 cells; for CC50 at 24 hours: Day 1 (24 hours); for CC50 at 3 days: Day 3
Protocol: (§5) The A375 (human melanoma cell line) cells were purchased from the ATCC (Cat. No. CRL-1619, USA). As a cell culture medium, DMEM (Cat. No. 12-604, Lonza, USA) supplemented with 10% FBS (Cat. No. 16000-044, Gibco, USA) was used. Subculturing and cytotoxicity test were conducted in the same manner as for the HEM cells.
as §2, §3
(§6) The cytotoxicity of the whitening ingredients for A375 (human melanoma cell line, Cat. No. CRL-1619) cells with different treatment time was investigated. The toxicity was measured for 3 different sample treatment conditions. The cytotoxicity was measured after treating with the whitening ingredients for 24 hours, after treating with the samples for 24 hours and 48 hours later after exchanging with fresh media, and after treating with the samples for 72 hours without exchange of media. The result is shown as graphs (FIG. 3). Based on the measurement result, CC20 and CC50 were calculated for the whitening ingredients and treatment time. Then, the ratio of the cytotoxic concentration on day 3 as compared to day 1 was calculated (Table 3).

A375 cells = assay: as above; assay type: cell-based, human; conditions: for Change in cytotoxicity after removal of the samples: A375 cells treated for a day, then cultured further for 2 days after removing the samples; for CC20 / CC50: A375 cells
Protocol: as §5, §2, §3, §6

HEMn-MP cells [4] = assay: Cytotoxicity for HEMn-MP cells with or without UVB radiation (Test Example 3); assay type: cell-based, human; conditions: UVB 20 mJ/cm^3 irradiated vs unirradiated HEMn-MP cells, day 7
From the text: In order to investigate the effect of UVB radiation on the cytotoxicity of the whitening ingredients, cytotoxicity was compared for groups treated with the whitening ingredients without UVB radiation and groups irradiated with UVB at […] and then treated with the whitening ingredients (FIG. 5). That is to say, the response of the cells excited by UVB radiation to various whitening ingredients was investigated. After irradiating the cells with UVB and treating the cells with the samples, increase in cytotoxicity was determined and the ratio of cytotoxicity as compared to before the treatment was calculated (Table 7).
The ratio (%) of toxicity for the UVB-irradiated cells as compared to UVB-unirradiated cells was determined at representative concentrations (3 points) for each whitening ingredient. The ratio was corrected for the cytotoxicity of the control group (15-20%).

HEMn-MP cells [5] = assay: Inhibition of melanin production in HEMn-MP cells and correlation factor with cytotoxic concentration (Test Example 2); assay type: cell-based, human; conditions: for CC20/EC50 / EC50 / CC50/EC50: HEMn-MP cells, day 7; for CC20/EC50: 20% cytotoxic concentration divided by EC50 of melanin production; for EC50: read-out: EC50 (50% inhibitory concentration of melanin synthesis); for CC50/EC50: 50% cytotoxic concentration divided by EC50 of melanin production
Protocol: The inhibitory effect of melanin production of the whitening ingredients for HEMn-MP cells was investigated. After treating the cells with the samples at concentrations shown in Table 4 and culturing for 7 days, the amount of melanin was measured as compared to a control group (0.5% DMSO) (FIG. 4). Also, EC50 (50% effective inhibitory concentration of melanin production) was calculated for the whitening ingredients (Table 5). Then, CC20 or CC50 was divided by EC50 to investigate the correlation factor (difference) between the cytotoxicity and the effective inhibitory concentration of melanin production (Table 6).
Table 6 compares the correlation factor between the cytotoxic concentration (CC50) and the inhibitory concentration of melanin synthesis (EC50) of the whitening ingredients on day 7. CC20/EC50 is the value obtained by dividing the 20% cytotoxic concentration by the 50% effective inhibitory concentration of melanin production and represents the correlation factor of the 20% cytotoxic concentration and the effective concentration. CC50/EC50 is the value obtained by dividing the 50% cytotoxic concentration by the 50% effective inhibitory concentration of melanin production and represents the correlation factor of the 50% cytotoxic concentration and the effective concentration.

[6] = consumers of commercialized skin whitening products, cited from earlier work

With `COc1cc(OC)c(C23CC4CC(CC(C4)C2)C3)cc1C(=O)NCc1ccc(O)cc1O` [AP, 5-adamantan-1-yl-N-(2,4-dihydroxybenzyl)-2,4-dimethoxy-benzoic acid amide] the CC50 at 1 day [1] was 5.4 ± 0.3 µM, the CC50 at 7 days [1] was 2.5 µM and the CC20 (HEMn-MP cells [2]; Day 1) was 3.3 ± 0.4 µM. For the same compound, the CC20 (HEMn-MP cells [2]; Day 7) was 1.3 ± 0.0 µM, the CC50 at 24 hours [3] was 33.8 ± 0.7 µM and the CC50 at 3 days [3] was 19.99 ± 0.06 µM. For the same compound, the “Change in cytotoxicity after removal of the samples” value (“Change in cytotoxicity” for short) (A375 cells) was “no more increase in cytotoxicity”, the CC20 (A375 cells; Day 1 (24 hours)) was 25.5 ± 0.8 µM and the CC20 (A375 cells; Day 3) was 17.2 ± 0.09 µM. The Ratio of cytotoxicity (HEMn-MP cells [4]; 0.39 μM) was 2%, the Ratio of cytotoxicity (HEMn-MP cells [4]; 0.78 μM) was 14% and the Ratio of cytotoxicity (HEMn-MP cells [4]; 1.56 μM) was 0%. For the same compound, the CC20/EC50 (HEMn-MP cells [5]) was 11.8 Fold, the EC50 (HEMn-MP cells [5]; Homo sapiens, 168 h) was 0.11 ± 0.01 µM and the “Inhibitory effect of melanin production by melanocytes” value (HEMn-MP cells [5]; Test Example 2) was “excellent inhibitory effect of melanin production”.
`Oc1ccc(OCc2ccccc2)cc1` [MB, 4-benzyloxy-phenol] gave a CC50 at 1 day [1] of 284 ± 28.2 µM, a CC50 at 7 days [1] of 19 ± 0.7 µM and a CC20 (HEMn-MP cells [2]; Day 1) of 178.2 ± 21.6 µM. For the same compound, the CC20 (HEMn-MP cells [2]; Day 7) was 8.9 ± 0.4 µM, the CC50 at 24 hours [3] was 295 ± 7.2 µM and the CC50 at 3 days [3] was 7.19 ± 0.14 µM. For the same compound, the “Change in cytotoxicity” value (A375 cells) was “continuously increased toxicity”, the CC20 (A375 cells; Day 1 (24 hours)) was 119.8 ± 4.7 µM and the CC20 (A375 cells; Day 3) was 2.31 ± 0.07 µM. For the same compound, the CC20/EC50 (HEMn-MP cells [5]) was 1.3 Fold, the CC50/EC50 (HEMn-MP cells [5]) was 2.8 Fold and the EC50 (HEMn-MP cells [5]; Homo sapiens, 168 h) was 6.8 ± 2.5 µM. The “Clinical side effect reported by users” value [6] was “leukoderma-like side effects”.
Work on `CCCCc1ccc(O)cc1O` [RC, 4-butylresorcinol] yielded a CC50 at 1 day [1] of 347 ± 12.7 µM, a CC50 at 7 days [1] of 284 ± 20.4 µM and a CC20 (HEMn-MP cells [2]; Day 1) of 170.2 ± 15.9 µM. It also gave a CC20 (HEMn-MP cells [2]; Day 7) of 69.7 ± 6.1 µM, a CC50 at 24 hours [3] of 508 ± 11.3 µM and a CC50 at 3 days [3] of 122 ± 11 µM. The “Change in cytotoxicity” value (A375 cells) was “no more increase in cytotoxicity”, the CC20 (A375 cells; Day 1 (24 hours)) was 313.9 ± 10.6 µM and the CC20 (A375 cells; Day 3) was 52.73 ± 4.67 µM. For the same compound, the Ratio of cytotoxicity (HEMn-MP cells [4]; 31.25 μM) was 0%, the Ratio of cytotoxicity (HEMn-MP cells [4]; 62.5 μM) was 0% and the Ratio of cytotoxicity (HEMn-MP cells [4]; 125 μM) was 0%. For the same compound, the CC20/EC50 (HEMn-MP cells [5]) was greater than 20 Fold, the EC50 (HEMn-MP cells [5]; Homo sapiens, 168 h) was 2.7 ± 0.6 µM and the “Clinical side effect reported by users” value ([6]; listed as rucinol) was “no clinical side effect has been reported; also recorded: no clinical problem has been reported”.
`C[C@@H](O)CCc1ccc(O)cc1` [RD, rhododenol] gave a CC20 (HEMn-MP cells [2]; Day 1) of 7100 ± 800 µM, a CC50 (HEMn-MP cells [2]; Day 1) of 10800 ± 700 µM and a CC20 (HEMn-MP cells [2]; Day 7) of 1000 ± 0 µM. For the same compound, the CC50 (HEMn-MP cells [2]; Day 7) was 2400 ± 100 µM, the “Change in cytotoxicity” value (A375 cells) was “continuously increased toxicity” and the CC20 (A375 cells; Day 1 (24 hours)) was 4200 ± 200 µM. It also gave a CC50 (A375 cells; Day 1 (24 hours)) of 8400 ± 200 µM, a CC20 (A375 cells; Day 3) of 190 ± 10 µM and a CC50 (A375 cells; Day 3) of 500 ± 20 µM. For the same compound, the Ratio of cytotoxicity (HEMn-MP cells [4]; 1.25 mM) was 24%, the Ratio of cytotoxicity (HEMn-MP cells [4]; 2.5 mM) was 27% and the Ratio of cytotoxicity (HEMn-MP cells [4]; 5 mM) was 15%. It also gave a CC20/EC50 (HEMn-MP cells [5]) of 0.8 Fold, a CC50/EC50 (HEMn-MP cells [5]) of 2.1 Fold and an EC50 (HEMn-MP cells [5]) of 1130 ± 160 µM. The “Clinical side effect reported by users” value [6] was “leukoderma-like side effects; also recorded: leukoderma-like symptoms”.
`CC(=O)CCc1ccc(O)cc1` [RK, raspberry ketone] showed a CC50 at 1 day [1] of 10400 ± 200 µM, a CC50 at 7 days [1] of 1400 ± 400 µM and a CC20 (HEMn-MP cells [2]; Day 1) of 6500 ± 200 µM. It also gave a CC20 (HEMn-MP cells [2]; Day 7) of 400 ± 100 µM, a CC50 at 24 hours [3] of 10700 ± 100 µM and a CC50 at 3 days [3] of 790 ± 40 µM. The “Change in cytotoxicity” value (A375 cells) was “continuously increased toxicity”, the CC20 (A375 cells; Day 1 (24 hours)) was 6700 ± 100 µM and the CC20 (A375 cells; Day 3) was 240 ± 20 µM. The Ratio of cytotoxicity (HEMn-MP cells [4]; 0.625 mM) was 19%, the Ratio of cytotoxicity (HEMn-MP cells [4]; 1.25 mM) was 8% and the Ratio of cytotoxicity (HEMn-MP cells [4]; 2.5 mM) was 26%. The CC20/EC50 (HEMn-MP cells [5]) was 0.4 Fold, the CC50/EC50 (HEMn-MP cells [5]) was 1.4 Fold and the EC50 (HEMn-MP cells [5]; Homo sapiens, 168 h) was 970 ± 90 µM. The “Clinical side effect reported by users” value [6] was “leukoderma-like side effects”.
